Entries after “also recorded” stand apart in the source; their conditions may differ.
Key:
Assay type in all cases: in vivo
[1] = tasting of Hominex amino acid beverage with mogroside; conditions: 9.3 g Hominex/100 ml water + 100 ppm mogroside (plain: bitter, chalky, floury)
[2] = tasting of rum with mogroside; conditions: plain + 200 ppm mogroside (plain: sharp and bitter)
From the text: (§1) Additional examples of the use of Mogroside V to alter the flavors of various consumables, and the experimental results obtained, are summarized in Table I: […]

[3] = tasting of vodka with mogroside; conditions: plain + 200 ppm mogroside (plain: sharp bite)
From the text: as §1

[4] = tasting of acai ice cream with glycerine and mogroside
From the text: as §1

[5] = tasting of Hominex amino acid beverage with mogroside; conditions: for off-flavors, chalkiness, pastiness and bitterness compared to the unmodified beverage / mogroside-associated off flavor: Hominex suspension
Method: For example, we added mogroside to a commercial amino acid beverage (Hominex™) at a rate of 200-1000 ppm, preferably 300-800 ppm. The Hominex™ suspension, which contains free amino acids, vitamins, minerals, and other nutrients, was prepared in accordance with the manufacturer's directions. Mogroside was then added to the dissolved medical food drink. The suspension was allowed to equilibrate for about one minute before tasting. Compared to the unmodified beverage, there was a marked reduction in the off-flavors, the chalkiness, the pastiness, and the bitterness. […] Unless additional flavors are also added, mogroside's own off-flavor can limit its use at higher concentrations. Conversely, at least for the samples we have tested to date, there may be no compelling reason to use mogroside at such higher levels anyway. Using mogroside in free amino acid-based foods can reduce or eliminate the bitter and unpleasant flavors, making them much more palatable, and enhancing patient compliance. Similar results are expected for improving the palatability of other medical foods.
as §1

mogroside
flavor [1]: less so, but still floury | flavor [2]: sweet | flavor [3]: tasteless | flavor and texture ([4]; + 5% Acai + 5% glycerin + 200 ppm mogroside): not too much flavor,; also recorded: slightly soft | flavor and texture ([4]; + 5% Acai + 5% glycerin + 300 ppm mogroside): soft, sweet | flavor and texture ([4]; + 5% Acai + 5% glycerin + 400 ppm mogroside): sweet, not much flavor,; also recorded: some berry, soft | flavor and texture ([4]; + 10% Acai + 5% glycerin + 200 ppm mogroside): berry notes, slightly soft | flavor and texture ([4]; + 10% Acai + 5% glycerin + 300 ppm mogroside): creamy | flavor and texture ([4]; + 10% Acai + 5% glycerin + 400 ppm mogroside): sweet, jammy, creamy,; also recorded: a bit too sweet | flavor and texture ([4]; + 10% Acai + 10% glycerin + 300 ppm mogroside): creamy | flavor and texture ([4]; + 10% Acai + 10% glycerin + 400 ppm mogroside): sweet, jammy, creamy,; also recorded: a bit too sweet | flavor and texture ([4]; plain + glycerine + 300 ppm mogroside (plain + glycerine: tannic, not sweet)): soft and creamy, sweet,; also recorded: berry, mild; best texture | flavor and texture ([4]; plain ice cream + 300 ppm mogroside (only)): plain, gummy | flavor ([5]; 9.3 g Hominex/100 ml water + 200 ppm mogroside): much less so, but still; also recorded: bitter & slightly floury | flavor ([5]; 9.3 g Hominex/100 ml water + 300 ppm mogroside): drinkable | flavor ([5]; 9.3 g Hominex/100 ml water + 400 ppm mogroside): tasteless | flavor ([5]; 9.3 g Hominex/100 ml water + 500 ppm mogroside): tasteless | flavor ([5]; 9.3 g Hominex/100 ml water + 600 ppm mogroside): slight strange taste | flavor ([5]; 9.3 g Hominex/100 ml water + 700 ppm mogroside): hint of off-note | flavor ([5]; 9.3 g Hominex/100 ml water + 800 ppm mogroside): off-flavored | flavor ([5]; 10 g Hominex/230 g water + 200 ppm mogroside (without: bad aftertaste)): drinkable | off-flavors, chalkiness, pastiness and bitterness compared to the unmodified beverage ([5]; 200 ppm mogroside): reduced | off-flavors, chalkiness, pastiness and bitterness compared to the unmodified beverage ([5]; 300 ppm mogroside): essentially eliminated | mogroside-associated off flavor ([5]; 800 ppm mogroside): pronounced | mogroside-associated off flavor ([5]; around 600 ppm mogroside): began to develop
